# Experimental data taken from patent US20040081675A1, “Cosmetic formulations containing flavonoid derivatives” (priority 2001, published 2004).
# Tests used:
# [1] = UV absorption properties (absorption maximum, shoulder, absorption coefficient); type: physicochemical
# Excerpt: Tiliroside absorbs in the UV-B region, i.e. in the wavelength range between 290 and 320 nm, with an absorption maximum at λmax=316 nm, and additionally in the UV-A region, i.e. in the wavelength range between 320 and 400 nm, with an absorption shoulder at λsh=349 nm. The absorption coefficient ε at λmax=316 nm is ε=23260 and at λsh=349 nm is ε=13500.
# The absorption coefficient at this wavelength is 23420.
# [2] = type: physicochemical
# Excerpt: The invention furthermore relates to the stabilisation of UV filters. A known and effective class of light-protection filter substances is formed by the dibenzoylmethane derivatives. However, it is disadvantageous that these substances are decomposed very easily by UV light and their protective properties are thus lost. An example of a commercially available light-protection filter from this class of compounds which may be mentioned is 4-(tert-butyl)-4′-methoxydibenzoylmethane, which has the structure shown below. [drawing 22]
# Tiliroside can be used for stabilisation here as the pure substance or in the form of a plant extract. In a preferred embodiment, tiliroside is used in the form of a plant extract, a purified plant extract or in the form of the pure substance prepared from the plant extract.
# [3] = Inherent colour of the substance; type: physicochemical
# Excerpt: The weak inherent colour is, for example, a major advantage if an inherent colour of the ingredients is undesired in the products for aesthetic reasons.
smiles,measurement,setting,value
"O=C(C=Cc1ccc(O)cc1)OC[C@H]1O[C@@H](Oc2c(-c3ccc(O)cc3)oc3cc(O)cc(O)c3c2=O)[C@H](O)[C@@H](O)[C@@H]1O [Tiliroside, kaempferol 3-(6″-p-coumarylglucoside)]",absorption shoulder λsh,[1]; UV-A region (320 to 400 nm),349 nm
same,absorption in the UV-A region (in words),"[1]; UV-A region, tiliroside compared with Eusolex 6300",significantly better absorption properties in the UVA region
same,absorption maximum λmax,[1]; UV-B region,316 nm
same,absorption coefficient ε at λmax,"[1]; at the absorption maximum in the UV-B region (tiliroside 316 nm, Eusolex 6300 300 nm)",23260
same,absorption coefficient ε at λsh,"[1]; at the shoulder λsh=349 nm, UV-A region",13500
same,stabilising action for dibenzoylmethanes,[2],particularly high stabilising action
same,inherent colour,[3],only a weak inherent colour
